Measurements reported in patent publication US20240002354A1, “ANTIDIABETIC COMPOUNDS AND COMPOSITIONS” (REZUBIO PHARMACEUTICALS CO., LTD, priority 2020, published 2024).

These compounds were tested against T1, GPR40 (Homo sapiens, UniProt O14842) (assay: IP1 accumulation assay (Cisbio IP-One HTRF) in HEK293 cells stably expressing GPR40). Settings: HEK293 cells stably expressing GPR40, 37° C. for 2 hours, % Effect relative to AMG-1638 positive control.
T1 construct: expressed in transfected cells
Format: cell-based
Protocol: IP1 accumulation assay was used to evaluate the potency of compounds. HEK293 cells stably expressing GPR40 were cultured in 5% CO2 incubator (ThermoFisher) in maintenance media (Dulbecco's modified Eagle's medium with 4.5 g/L of glucose, 10% fetal bovine serum, 100 μg/mL Hygromycin, and Penicillin (100 U/mL)/Streptomycin (100 μg/mL)) till 100% confluency. Cells were harvested freshly, spun down at 300×g for 5 min, and resuspended in pre-warmed 1× stimulant buffer from Cisbio IP-One HTRF Detection kit (Cisbio). Cell density was adjusted to 2.0×10^6 cells/mL. DMSO was used as blank control and AMG-1638 (CAS #: 1142214-62-7) as positive control. Compounds were prepared at 10 mM in DMSO and 5 nL of 3× serially diluted compounds (10 concentrations) were added to each well of the 384-LDV assay plate (Corning) by using ECHO 550 (Labcyte). Five μL of cells in suspension were transferred into each well by using Multidrop Combi Reagent Dispenser (ThermoFisher). Assay plate was then sealed and incubated at 37° C. for 2 hours. IP-d2 reagent and anti-IP1 reagent were prepared following the manual (Cisbio). Five μL of IP1-d2 and then 5 μL of anti-IP1 antibody was added to each well sequentially. Assay plate was incubated at room temperature for 60 min and then read at 665 nm/615 nm on an Envision plate reader (PerkinElmer). The ratio of values obtained at 665 nm and 615 nm was used for calculation of IP1 accumulation: % Effect=(Ratiosample−Ratioblank)/(RatioAMG-1638−Ratioblank)×100. Dose curve was fitted and EC50 of each compound was calculated by using XLFit.

T1 sequence (O14842 whole entry): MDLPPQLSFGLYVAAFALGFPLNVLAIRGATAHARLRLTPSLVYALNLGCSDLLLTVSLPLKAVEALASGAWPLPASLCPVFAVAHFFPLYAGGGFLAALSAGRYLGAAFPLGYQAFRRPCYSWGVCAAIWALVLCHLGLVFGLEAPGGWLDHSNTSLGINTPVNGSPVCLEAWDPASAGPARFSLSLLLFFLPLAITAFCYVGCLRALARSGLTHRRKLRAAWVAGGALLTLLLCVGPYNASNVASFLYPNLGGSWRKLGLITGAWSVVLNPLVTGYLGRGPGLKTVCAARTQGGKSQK

EC50 | Compound
50 to 250 nM | CCCCCCn1cc(COc2ccc(OC(F)(F)F)c(CN3CCC([C@H]4CCc5ccc([C@H](C6CC6)[C@H](C)C(=O)O)cc5O4)CC3)c2)nn1 [compound 190, (2S,3R)-3-cyclopropyl-3-((R)-2-(1-(5-((1-hexyl-1H-1,2,3-triazol-4-yl)methoxy)-2-(trifluoro-methoxy)benzyl)piperidin-4-yl)chroman-7-yl)-2-methylpropanoic acid]
1 to 50 nM | C#Cc1ccc(OC(F)(F)F)c(CN2CCC([C@H]3CCc4ccc([C@H](C5CC5)[C@H](C)C(=O)O)cc4O3)CC2)c1 [compound 193, (2S,3R)-3-cyclopropyl-3-((R)-2-(1-(5-ethynyl-2-(trifluoromethoxy)benzyl)piperidin-4-yl)-chroman-7-yl)-2-methylpropanoic acid]
1 to 50 nM | C[C@H](C(=O)O)[C@H](c1ccc2c(c1)O[C@H](C1CCN(Cc3cc(N=[N+]=[N-])ccc3OC(F)(F)F)CC1)CC2)C1CC1 [compound 194, (2S,3R)-3-((S)-2-(1-(5-azido-2-(trifluoromethoxy)benzyl)piperidin-4-yl)chroman-7-yl)-3-cyclopropyl-2-methylpropanoic acid]
1 to 50 nM | CCCCCCc1cn(Cc2ccc(OC(F)(F)F)c(CN3CCC([C@H]4CCc5ccc([C@H](C6CC6)[C@H](C)C(=O)O)cc5O4)CC3)c2)nn1 [compound 195, (2S,3R)-3-cyclopropyl-3-((R)-2-(1-(5-((4-hexyl-1H-1,2,3-triazol-1-yl)methyl)-2-(trifluoro-methoxy)benzyl)piperidin-4-yl)chroman-7-yl)-2-methylpropanoic acid]
50 to 250 nM | CCCCCCCCCCc1ccc(OC(F)(F)F)c(CN2CCC([C@H]3CCc4ccc([C@H](C5CC5)[C@H](C)C(=O)O)cc4O3)CC2)c1 [compound 205, (2S,3R)-3-cyclopropyl-3-((R)-2-(1-(5-decyl-2-(trifluoromethoxy)benzyl)piperidin-4-yl)chroman-7-yl)-2-methylpropanoic acid]
≥ 5000 nM | COc1ccc2cc(CN=[N+]=[N-])oc2c1CN1CCC([C@H]2CCc3ccc([C@H](C4CC4)[C@H](C)C(=O)O)cc3O2)CC1 [compound 207, (2S,3R)-3-((R)-2-(1-((2-(azidomethyl)-6-methoxybenzofuran-7-yl)methyl)-piperidin-4-yl)chroman-7-yl)-3-cyclopropyl-2-methylpropanoic acid]
1000 to 5000 nM | CCCCCCc1cn(Cc2cc3ccc(OC)c(CN4CCC([C@H]5CCc6ccc([C@H](C7CC7)[C@H](C)C(=O)O)cc6O5)CC4)c3o2)nn1 [compound 209, (2S,3R)-3-cyclopropyl-3-((R)-2-(1-((2-((4-hexyl-1H-1,2,3-triazol-1-yl)methyl)-6-methoxybenzofuran-7-yl)methyl)piperidin-4-yl)chroman-7-yl)-2-methylpropanoic acid]
50 to 250 nM | C[C@H](C(=O)O)[C@H](c1ccc2c(c1)O[C@@H](C1CCN(Cc3cc(-c4cn(CCCCCCCCCCCCCCCCCC(=O)OCc5ccccc5)nn4)ccc3OC(F)(F)F)CC1)CC2)C1CC1 [compound 210, (2S,3R)-3-((R)-2-(1-(5-(1-(18-(benzyloxy)-18-oxooctadecyl)-1H-1,2,3-triazol-4-yl)-2-(trifluoromethoxy)benzyl)piperidin-4-yl)chroman-7-yl)-3-cyclopropyl-2-methylpropanoic acid]

Compound | EC50
(2S,2'S,3R,3′R)-3,3′-((2R,2′R)-2,2′-(1,1′-(((1,1′-(26-(2-(bis(3-((2-aminoethyl)amino)-3-oxopropyl)amino) ethyl)-18,23,29,34-tetraoxo-19,22,26,30,33-pentaazahenpentacontane-1,51-diyl)bis(1H-1,2,3-triazole-4,1-diyl))bis(2-(trifluoromethoxy)-5,1-phenylene))bis(methylene))bis (piperidine-4,1-diyl))bis(chroman-7,2-diyl))bis(3-cyclopropyl-2-methylpropanoic acid) [compound 203] | 50 to 250 nM
